Source: US12545688B2, “Camptothecin derivative and conjugate thereof” (SICHUAN BAILI PHARMACEUTICAL CO., LTD, priority 2019, dated 2026)
Where two headings read alike, the source gives them in different places.

Assays:
Test in all cases: In vitro activity test, inhibition of target cell proliferation (MTS)
Type in all cases: cell-based
A431 = conditions: Homo sapiens, A-431, 96 h, read-out: IC50 for the inhibition of target cell proliferation in vitro, A431
Protocol: (§1) • Cells: A431, SW620, BXPC3, Fadu from the Cell Bank of the Chinese Academy of • Sciences Cell • Culture medium DMEM: Gibco • FBS: BIOWEST
(§2) • Growth medium (with 10% FBS, Penicillin/streptomycin (100 U/mL) • Detection medium (with 1% FBS, Penicillin/streptomycin (100 U/mL)
(§3) Turn on the UV light of the biological safety cabinet 30 minutes in advance, and then turn on the ventilation for 3 minutes. The growth medium, detection medium, D-PBS and trypsin were preheated in a constant temperature water bath at 37° C., and then the surfaces were disinfected with alcohol and placed in a biological safety cabinet. Place the cells with a confluence of about 80% in a biological safety cabinet, aspirate the old medium, rinse with D-PBS, aspirate and discard, digest with trypsin for 2-3 min, add growth medium to neutralize, and centrifuge. 1200 rpm, 3 min. Aspirate the centrifugation supernatant, mix with 4 mL of detection medium, and count 100 uL (50 uL of cell fluid is taken out, 50 μL of Trypan Blue Stain is added and mixed, and counted after mixing). According to the pre-optimized cell plating density, 80 ul/well was plated in a 96-well plate. Only 80 uL detection medium was added to wells E11 and F11, and 150 uL of DPBS was added to the edge wells. 24 h after plating, add diluted antibody, 20 uL per well and set control, only add 20 uL detection medium in column 11, set 2 duplicate wells for each concentration, and mix on a cell vortex shaker after adding, 550 rpm, 3 min.
(§4) Dilution of the antibody solution: use the detection medium to prepare the test solution with an initial concentration of 5 uM and 300 uL in the first column of the V-shaped 96-well plate, and then add 240 uL of detection medium to the second to 10th columns respectively, take 60 uL from the first column of mixing and add it to the second column, mix up and down with a row gun for 10 times, discard the pipette tip, and operate the following 7 concentrations in sequence.
(§5) After 4 days, take out the MTS reagent, thaw at room temperature in the dark, vortex and mix well, add 20 μL of CellTiter One Solution Reagen MTS reagent per 100 μL of cell culture volume along the side wall of the well in the biological safety cabinet, and tap gently. After the MTS solution was evenly mixed, it was placed in a cell incubator for 2 h in the dark. After the reaction, the 96-well plate was taken out, the absorbance at OD490 nm was detected in a microplate reader, and the data was recorded, organized, analyzed and stored.

Fadu = conditions: Homo sapiens, 96 h, read-out: IC50 for the inhibition of target cell proliferation in vitro, Fadu
Protocol: as §1, §2, §3, §4, §5

SW620 = conditions: Homo sapiens, SW-620, 96 h, read-out: IC50 for the inhibition of target cell proliferation in vitro, SW620
Protocol: as §1, §2, §3, §4, §5

Bxpc-3 = conditions: Homo sapiens, read-out: IC50 for the inhibition of target cell proliferation in vitro, Bxpc-3
Protocol: as §1, §2, §3, §4, §5

[1] = 96 h, Bxpc-3 cells, MTS after 4 days

Structure (SMILES)	IC50 (A431; A431 cells, MTS after 4 days)	IC50 (Fadu; Fadu cells, MTS after 4 days)	IC50 (SW620; SW620 cells, MTS after 4 days)	IC50 (Bxpc-3; [1])	IC50 (A431)	IC50 (Fadu; FaDu)	IC50 (SW620)	IC50 (Bxpc-3; BXPC-3, 96 h)
CC[C@@]1(O)C(=O)OCc2c1cc1n(c2=O)Cc2c-1nc1cc(F)c(C)c3c1c2[C@@H](N(C)C(=O)CO)CC3 [Compound 6]	3.63 nM	1.64 nM	17.7 nM	13.1 nM				
CCCN(C(=O)CO)[C@H]1CCc2c(C)c(F)cc3nc4c(c1c23)Cn1c-4cc2c(c1=O)COC(=O)[C@]2(O)CC [Compound 12]					1.1 nM	0.13 nM	200 to 1000 nM	1.6 to 8 nM
CC[C@@]1(O)C(=O)OCc2c1cc1n(c2=O)Cc2c-1nc1cc(F)c(C)c3c1c2[C@@H](N(C)C(=O)C1(O)CC1)CC3 [Compound 14]					93.3 nM	53 nM	200 to 1000 nM	153 nM
CC[C@@]1(O)C(=O)OCc2c1cc1n(c2=O)Cc2c-1nc1cc(F)c(C)c3c1c2[C@@H](N(C)C(=O)[C@H](C)O)CC3 [Compound 16]	0.03 nM	0.0014 nM	0.064 to 0.32 nM	0.00256 to 0.0128 nM				
